Tests used:
FADD−/− Jurkat cells = test: Necroptosis inhibition assay, TNF-α-induced necroptosis (CellTiter-Glo 2.0); format: cell-based, human; details: TNF-α 15 ng/mL; for Necroptosis inhibition assay (Rescue %) 1 μM: compound 1 μM; for Necroptosis inhibition assay (Rescue %) 10 μM: compound 10 μM
Method in brief: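 Cmpd 0.1/1/10 μM final, 30 min RT preincubation; TNF-α 15 ng/mL final; 20–24 h, 37° C, 5% CO2. Readout: ATP luminescence (reagent 1:3 in PBS), 0.5 s/well. Cytotoxicity and % necroptosis inhibition calculated from signal.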

MLKL [1] = target: T1, MLKL (Homo sapiens, UniProt Q8NB16); test: MLKL degradation assay in HepG2 cell line (western blot); format: cell-based; design: endogenous in cells; host or cells: HepG2 or HaCaT; details: cell line not given; for Degradation assay (Degradation %) 1 μM: compound 1 μM; for Degradation assay (Degradation %) 10 μM: compound 10 μM
T1 sequence (Q8NB16 1-471): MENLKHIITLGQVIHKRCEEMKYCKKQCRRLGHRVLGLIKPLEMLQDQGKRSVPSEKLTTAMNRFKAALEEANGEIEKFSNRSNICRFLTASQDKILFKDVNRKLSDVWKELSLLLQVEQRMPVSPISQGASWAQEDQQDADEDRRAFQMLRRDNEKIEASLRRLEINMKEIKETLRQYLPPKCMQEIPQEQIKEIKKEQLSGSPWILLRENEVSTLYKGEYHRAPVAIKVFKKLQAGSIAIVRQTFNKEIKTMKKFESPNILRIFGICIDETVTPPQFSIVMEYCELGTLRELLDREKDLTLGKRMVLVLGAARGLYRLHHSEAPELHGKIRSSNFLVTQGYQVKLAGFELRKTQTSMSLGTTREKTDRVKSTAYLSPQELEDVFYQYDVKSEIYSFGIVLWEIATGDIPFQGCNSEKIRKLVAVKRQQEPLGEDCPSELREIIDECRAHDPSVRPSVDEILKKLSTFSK
Method in brief: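 HepG2, cpd final 1 or 10 μM, 20-24 h, 37 °C/5% CO2; RIPA lysis, BCA-normalized, 10-15 μg/lane SDS-PAGE, western blot, ECL read-out.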

MLKL [2] = target: T1, MLKL; test: Measurement of binding affinity with MLKL receptor (competitive binding assay, Kd); design: made in house; host or cells: HEK 293 cell line (T7 phage in E. coli BL21-derived host is also described)
Method in brief: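 Competitive displacement of MLKL, expressed in HEK 293 cells and DNA-tagged for qPCR, from immobilized ligand on biotin-blocked beads. Compounds were added from 111× DMSO stocks (final DMSO 0.9%). Kinase left in the eluates was quantified by qPCR to give Kd.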

Q: `Nc1ncc(-c2cnn(C3CCN(CCCN4CCN(C(=O)C5CCN(C6=CC(=O)N(C7CCC(=O)NC7=O)C6=O)CC5)CC4)CC3)c2)nc1C(=O)O[C@@H](C(=O)Nc1ccc(F)cc1)c1ccccc1` (stereo partly drawn) [TDH-526, (R)-2-((4-fluorophenyl)amino)-2-oxo-1-phenylethyl 3-amino-6-(1-(1-(3-(4-(1-(1-(2,6-dioxopiperidin-3-yl)-2,5-dioxo-2,5-dihydro-1H-pyrrol-3-yl)piperidine-4-carbonyl)piperazin-1-yl)propyl)piperidin-4-yl)-1H-pyrazol-4-yl)pyrazine-2-carboxylate] was tested. Which “Necroptosis inhibition assay (Rescue %) 1 μM” value (FADD−/− Jurkat cells; FADD−/− Jurkat cells) did it give?
A: Its value is 57.37%.

Q: What about the “Necroptosis inhibition assay (Rescue %) 10 μM” value (FADD−/− Jurkat cells; FADD−/− Jurkat cells) of the same compound?
A: The value was 22.77%.

Q: And the “Degradation assay (Degradation %) 1 μM” value (MLKL [1])?
A: The value was 67.25%.

Q: What about the “Degradation assay (Degradation %) 10 μM” value (MLKL [1]) of the same compound?
A: The value was 81.42%.

Q: And the Kd (MLKL [2])?
A: Its Kd is 1.2 nM.

Q: What does the source list for `Nc1ncc(-c2cnn(C3CCN(C(=O)COC4CCN(c5cccc6c5C(=O)N(C5CCC(=O)NC5=O)C6=O)CC4)CC3)c2)nc1C(=O)O[C@@H](C(=O)Nc1ccc(F)cc1)c1ccccc1` (stereo partly drawn) [TDH-399, (R)-2-((4-fluorophenyl)amino)-2-oxo-1-phenylethyl 3-amino-6-(1-(1-(2-((1-(2-(2,6-dioxopiperidin-3-yl)-1,3-dioxoisoindolin-4-yl)piperidin-4-yl)oxy)acetyl)piperidin-4-yl)-1H-pyrazol-4-yl)pyrazine-2-carboxylate]?
A: Necroptosis inhibition assay (Rescue %) 1 μM (FADD−/− Jurkat cells): 34.21%; Necroptosis inhibition assay (Rescue %) 10 μM (FADD−/− Jurkat cells): 27.35%; Degradation assay (Degradation %) 1 μM (MLKL [1]): 74.40%; Degradation assay (Degradation %) 10 μM (MLKL [1]): 71.63%; Kd (MLKL [2]): 7.6 nM

Q: Which “Necroptosis inhibition assay (Rescue %) 1 μM” value (FADD−/− Jurkat cells; FADD−/− Jurkat cells) does the source give for `Nc1ncc(-c2cnn(C3CCN(C4CC5(CCN(CC6CCN(C(=O)Cc7cccc(NC8=CC(=O)N(C9CCC(=O)NC9=O)C8=O)c7)CC6)CC5)C4)CC3)c2)nc1C(=O)O[C@@H](C(=O)Nc1ccc(F)cc1)c1ccccc1` (stereo partly drawn) [TDH-500, (R)-2-((4-fluorophenyl)amino)-2-oxo-1-phenylethyl 3-amino-6-(1-(1-(7-((1-(2-(3-((1-(2,6-dioxopiperidin-3-yl)-2,5-dioxo-2,5-dihydro-1H-pyrrol-3-yl)amino)phenyl)acetyl)piperidin-4-yl)methyl)-7-azaspiro[3.5]nonan-2-yl)piperidin-4-yl)-1H-pyrazol-4-yl)pyrazine-2-carboxylate] here?
A: The value was 25.16%.

Q: What about the “Necroptosis inhibition assay (Rescue %) 10 μM” value (FADD−/− Jurkat cells; FADD−/− Jurkat cells) of the same compound?
A: The value was 0.16%.

Q: What about the “Degradation assay (Degradation %) 1 μM” value (MLKL [1]) of the same compound?
A: Its value is 80.41%.

Q: What about the “Degradation assay (Degradation %) 10 μM” value (MLKL [1]) of the same compound?
A: The value was 83.21%.

Q: What about the Kd (MLKL [2]) of the same compound?
A: The Kd was 0.64 nM.

Q: For `Nc1ncc(-c2cnn(C3CCN(C[C@H]4CC[C@H](CNC(=O)COc5ccc6c(c5)C(=O)N(C5CCC(=O)NC5=O)C6=O)CC4)CC3)c2)nc1C(=O)O[C@@H](C(=O)Nc1ccc(F)cc1)c1ccccc1` (stereo partly drawn) [TDH-346, (R)-2-((4-fluorophenyl)amino)-2-oxo-1-phenylethyl 3-amino-6-(1-(1-(((1r,4r)-4-((2-((2-(2,6-dioxopiperidin-3-yl)-1,3-dioxoisoindolin-5-yl)oxy)acetamido)methyl)cyclohexyl)methyl)piperidin-4-yl)-1H-pyrazol-4-yl)pyrazine-2-carboxylate], which “Necroptosis inhibition assay (Rescue %) 1 μM” value (FADD−/− Jurkat cells) is on record?
A: The value was 57.41%.

Q: And the “Necroptosis inhibition assay (Rescue %) 10 μM” value (FADD−/− Jurkat cells)?
A: The value was 24.57%.

Q: And the “Degradation assay (Degradation %) 1 μM” value (MLKL [1])?
A: The value was 85.62%.

Q: And the “Degradation assay (Degradation %) 10 μM” value (MLKL [1])?
A: Its value is 81.91%.

Q: And the Kd (MLKL [2])?
A: The Kd was 1.2 nM.

Q: Which results are given for `COc1ccc(C(=O)NCC2CCC(CN3CCC(n4cc(-c5cnc(N)c(C(=O)O[C@@H](C(=O)Nc6ccc(F)cc6)c6ccccc6)n5)cn4)CC3)CC2)cc1N1CCC(=O)NC1=O` (stereo partly drawn) [TDH-497, (R)-2-((4-fluorophenyl)amino)-2-oxo-1-phenylethyl 3-amino-6-(1-(1-(((1r,4r)-4-((3-(2,4-dioxotetrahydropyrimidin-1(2H)-yl)-4-methoxybenzamido)methyl)cyclohexyl)methyl)piperidin-4-yl)-1H-pyrazol-4-yl)pyrazine-2-carboxylate]?
A: Necroptosis inhibition assay (Rescue %) 1 μM (FADD−/− Jurkat cells; FADD−/− Jurkat cells): 13.48%; Necroptosis inhibition assay (Rescue %) 10 μM (FADD−/− Jurkat cells; FADD−/− Jurkat cells): −1.14%; Degradation assay (Degradation %) 1 μM (MLKL [1]): 73.89%; Degradation assay (Degradation %) 10 μM (MLKL [1]): 57.10%; Kd (MLKL [2]): 0.61 nM
